Results as given in PMC7366380, “Discovery of a Potent and Selective Covalent Inhibitor and Activity-Based Probe for the Deubiquitylating Enzyme UCHL1, with Antifibrotic Activity” (Journal of the American Chemical Society, 2020).
Values joined by “and” are separate entries in the source; they are usually repeats but may differ in a detail not shown here. Equal entries are not always repeated.

Tests used:
UCHL1 [1] = biological target: T1, UCHL1 (Homo sapiens, UniProt P09936); experiment: UCHL1 covalent adduct determination by LC-ESI-MS; type: binding; set-up: (residues 1-223, Uniprot P09936); GST (N, cleaved yes); made in house; host or cells: E. coli Rosetta 2(DE3), pGEX-6P-1; conditions: UCHL1 5 μM, compound 13 μM, 60 min
T1 sequence (P09936 1-223): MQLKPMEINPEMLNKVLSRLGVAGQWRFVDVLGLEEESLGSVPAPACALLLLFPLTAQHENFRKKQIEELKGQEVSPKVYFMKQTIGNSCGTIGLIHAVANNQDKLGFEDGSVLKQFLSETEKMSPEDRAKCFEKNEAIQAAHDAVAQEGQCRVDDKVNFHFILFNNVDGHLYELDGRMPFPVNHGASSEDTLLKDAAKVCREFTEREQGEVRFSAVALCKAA
Method: values were plotted against compound concentration to afford the apparent second order rate constant for inhibition, ka/I. The absolute value of the second order rate constant kobs/I was […]
Reversible inhibition assay: Jump dilution assays were performed by incubating UCHL1 […]
negative controls (iodoacetamide (IAA) 10 mM) for 30 min at room temperature. The reaction […]
intensity read immediately for 1 h.
UCHL1 covalent adduct determination […]
pH 7.5) was incubated with compound 1, 2 (2.5 equiv.) or DMSO for 1 h at room temperature.
The excess ligand was removed by washing with buffer D in an Amicon® Ultra MWCO 10 kDa centrifugation spin filter three times. The protein-adducts were desalted using 3× SDB-XC polystyrene-divinylbenzene copolymer extraction disks, following published methods.5 Samples were eluted with 50% (v/v) MeCN 0.5% (v/v) formic acid in LC-MS grade water and analyzed by LC-ESI (ACQUITY UPLC H-Class PLUS instrument (Waters)) using an ACQUITY UPLC BEH C4 column (Waters) coupled with Waters LCT Premier MS detector.
UCHL1 covalent adduct site identification […]
The MS data was analyzed by PEAKS Studio 8.5 (Bioinformatics Solutions Inc.). […]
Homogeneous time resolved fluorescence (HTRF) assay […]
BME) and incubated for 30 min at room temperature. […] The plates were sealed and incubated overnight at 4 °C then read using a PHERAstar (BMG), and the Delta F calculated: […]

USP16 = USP16 (Homo sapiens, UniProt Q9Y5T5); experiment: biochemical
Chain of USP16 (Q9Y5T5 whole entry, species assumed): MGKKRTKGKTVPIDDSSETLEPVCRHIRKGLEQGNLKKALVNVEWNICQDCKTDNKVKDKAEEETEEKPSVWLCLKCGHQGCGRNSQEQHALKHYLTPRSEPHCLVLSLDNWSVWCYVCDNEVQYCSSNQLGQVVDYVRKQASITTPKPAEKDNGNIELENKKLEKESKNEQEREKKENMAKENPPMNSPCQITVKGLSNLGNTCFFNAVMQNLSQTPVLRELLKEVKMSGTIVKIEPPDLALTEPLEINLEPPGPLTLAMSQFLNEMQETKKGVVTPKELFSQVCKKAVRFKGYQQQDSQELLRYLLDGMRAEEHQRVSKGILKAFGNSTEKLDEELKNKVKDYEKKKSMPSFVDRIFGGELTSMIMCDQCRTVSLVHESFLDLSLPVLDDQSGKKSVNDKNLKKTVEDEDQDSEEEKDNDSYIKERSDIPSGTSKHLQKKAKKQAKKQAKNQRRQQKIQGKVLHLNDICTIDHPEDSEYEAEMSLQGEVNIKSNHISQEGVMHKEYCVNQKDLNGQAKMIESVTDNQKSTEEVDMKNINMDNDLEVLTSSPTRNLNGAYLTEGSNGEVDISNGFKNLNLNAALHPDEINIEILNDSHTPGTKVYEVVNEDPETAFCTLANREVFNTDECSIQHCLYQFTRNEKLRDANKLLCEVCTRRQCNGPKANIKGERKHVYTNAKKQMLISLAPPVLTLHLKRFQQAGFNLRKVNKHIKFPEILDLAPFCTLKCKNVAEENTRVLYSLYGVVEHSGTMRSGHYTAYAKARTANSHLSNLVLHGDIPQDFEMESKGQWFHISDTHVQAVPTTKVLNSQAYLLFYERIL

[2] = system: HEK293 cells whole proteome; experiment: Whole proteome analysis (no enrichment) of HEK293 cells treated with ABP 2, TMT; type: cell-based, human
[3] = ABP 2 stability in cell culture medium (in-gel fluorescence readout); conditions: DMEM medium, 37 °C, then 1 h on HEK293 cells
EIF3F = EIF3F (Homo sapiens, UniProt O00303); experiment: Quantitative chemical proteomic profiling of ABP 2 in HEK293 cells: EIF3F; conditions: for Log2 reporter intensity values (Log2FC, DMSO substract): EIF3F, listed as ABP 2
UCHL1 [4] = biological target: T1, UCHL1; experiment: Quantitative chemical proteomic profiling of ABP 2 in HEK293 cells (AzRB enrichment, TMT): UCHL1; conditions: for Log2 reporter intensity values (Log2FC, DMSO substract): UCHL1, listed as ABP 2
[5] = system: UCHL3, UCHL5, and DUBs from other families; experiment: ABP 2 labeling in HEK293 cells, pulldown and immunoblotting of other DUBs; conditions: HEK293, 1 h, pulldown, immunoblot
UCHL1 [6] = biological target: T1, UCHL1; experiment: ABP 2 labeling in HEK293 cells, AzTB ligation, in-gel fluorescence; conditions: HEK293, time course
[7] = whole proteome, no enrichment, HEK293, 0.02 μM vs DMSO, 1 h
[8] = whole proteome, no enrichment, HEK293, 0.2 μM vs DMSO, 1 h
[9] = whole proteome, no enrichment, HEK293, 2 μM vs DMSO, 1 h
[10] = 200 nM, 180 min, replicates A,C
[11] = HEK293, 20 nM vs DMSO, 1 h, enrichment, TMT, n=3
[12] = HEK293, 200 nM vs DMSO, 1 h, enrichment, TMT, n=3

## N#CN1CCC[C@H]1C(=O)N1CCc2c(-c3c[nH]c4ncccc34)cccc21 [Compound 1]
UCHL1 [1]
  covalent modification of UCHL1 by LC-ESI-MS: single modification
USP16
  IC50: > 10 µM

## C#Cc1cnc2[nH]cc(-c3cccc4c3CCN4C(=O)[C@@H]3CCCN3C#N)c2c1 [Compound 2]
[2]; HEK293, 20, 200 or 2000 nM, 60 min
  abundance change in whole proteome analysis: No significant abundance change
[2]; [7]
  Log2 t-test Difference, AAAS, ABP 2 -0.02 μM: 0.04017
  Log2 t-test Difference, AACS, ABP 2 -0.02 μM: -0.01983
  Log2 t-test Difference, AAGAB, ABP 2 -0.02 μM: 0.05728
  Log2 t-test Difference, AAMP, ABP 2 -0.02 μM: -0.03986
[2]; [8]
  Log2 t-test Difference, AAAS, ABP 2 -0.2 μM: -0.001777
  Log2 t-test Difference, AACS, ABP 2 -0.2 μM: 0.03866
  Log2 t-test Difference, AAGAB, ABP 2 -0.2 μM: 0.002598
  Log2 t-test Difference, AAMP, ABP 2 -0.2 μM: 0.04194
[2]; [9]
  Log2 t-test Difference, AAAS, ABP 2 -2 μM: 0.07218
  Log2 t-test Difference, AACS, ABP 2 -2 μM: 0.09255
  Log2 t-test Difference, AAGAB, ABP 2 -2 μM: 0.1494
  Log2 t-test Difference, AAMP, ABP 2 -2 μM: -0.01217
[3]
  stability in media without loss of activity: > 72 h
UCHL1 [1]
  covalent modification of UCHL1 by LC-ESI-MS: single modification
EIF3F; 2 nM, 60 min, replicates A-C
  Log2 reporter intensity values (Log2FC, DMSO substract): 0.2006 and 0.08743 and 0.3363
EIF3F; 20 nM, 10 min, replicates B,C
  Log2 reporter intensity values (Log2FC, DMSO substract): 0.2292 and 0.2562
EIF3F; 20 nM, 60 min, replicates A-C
  Log2 reporter intensity values (Log2FC, DMSO substract): 0.2037 and 0.07421 and -0.06904
EIF3F; 20 nM, 180 min, replicates A-C
  Log2 reporter intensity values (Log2FC, DMSO substract): 0.329 and 0.1016 and 0.09094
EIF3F; 200 nM, 10 min, replicates B,C
  Log2 reporter intensity values (Log2FC, DMSO substract): 0.1208 and 0.2271
EIF3F; 200 nM, 60 min, replicates A-C
  Log2 reporter intensity values (Log2FC, DMSO substract): 0.222 and -0.03463 and 0.3157
EIF3F; [10]
  Log2 reporter intensity values (Log2FC, DMSO substract): 0.2814 and 0.1468
EIF3F; [11]
  Log2 t-test Difference, EIF3F, 20 nM: 0.06962
EIF3F; [12]
  Log2 t-test Difference, EIF3F, 200 nM: 0.1677
UCHL1 [4]; HEK293, 2 nM vs DMSO, 1 h, enrichment, TMT, n=3
  Log2 t-test Difference, UCHL1, 2 nM: 1.208
UCHL1 [4]; [11]
  Log2 t-test Difference, UCHL1, 20 nM: 2.871
UCHL1 [4]; [12]
  Log2 t-test Difference, UCHL1, 200 nM: 3.757
UCHL1 [4]; HEK293, 2, 20 or 200 nM, 10, 60 or 180 min
  UCHL1 enrichment (chemical proteomics): significantly enriched
UCHL1 [4]; 2 nM, 60 min, replicates A-C
  Log2 reporter intensity values (Log2FC, DMSO substract): 1.19 and 1.075
UCHL1 [4]; 20 nM, 10 min, replicates B,C
  Log2 reporter intensity values (Log2FC, DMSO substract): 2.249 and 2.237
UCHL1 [4]; 20 nM, 60 min, replicates A-C
  Log2 reporter intensity values (Log2FC, DMSO substract): 3.049 and 2.943 and 2.622
UCHL1 [4]; 20 nM, 180 min, replicates A-C
  Log2 reporter intensity values (Log2FC, DMSO substract): 2.8835 and 2.817 and 2.539
UCHL1 [4]; 200 nM, 10 min, replicates B,C
  Log2 reporter intensity values (Log2FC, DMSO substract): 3.8701 and 3.284
UCHL1 [4]; 200 nM, 60 min, replicates A-C
  Log2 reporter intensity values (Log2FC, DMSO substract): 3.775 and 4.082 and 3.414
UCHL1 [4]; [10]
  Log2 reporter intensity values (Log2FC, DMSO substract): 3.588 and 3.369
[5]
  labeling of UCHL3, UCHL5, and DUBs from other families: minimal or no detectable labeling
UCHL1 [6]
  time to maximal labeling: ≤ 60 min

## CC(=O)O/N=C1\C(=O)N(Cc2cc(Cl)ccc2Cl)c2ccc(Cl)cc21 [LDN-57444, reference compound]
USP16
  IC50: > 10 µM
